The values that follow come from US11814372B2, “Agonists of EPHA and their uses” (CASE WESTERN RESERVE UNIVERSITY, priority 2017, dated 2023).

SMILES strings stand for the structures.

The Kd is the constant that tells how readily two partners part at equilibrium.

The assay has as its target T1, EphA2 LBD (Homo sapiens, UniProt P29317).
T1 construct: fused on or other part: Minimal biotinylation for capture on Neutravidin (doxazosin run); amine coupling for the other compounds
The assay can be described thus: Surface Plasmon Resonance binding analysis. To be noted: SPR, recombinant LBD of EphA2; read-out: dissociation constant (KD). Here is the method:
Binding analysis was carried out using standard biosensor chips and the […] Dual Channel SPR System (Reichert Life Sciences, Depew, N.Y.). The extracellular domain (ECD) of EphA2 was coupled to the chip by standard amine coupling using 1-ethyl-3-(3-dimethylaminopropyl) carbodiimide (EDC) and N-hydroxysuccinimide (NHS), followed by ethanolamine wash. In the case of doxazosin, Neutravidin was coupled to the chip, followed by ethanolamine wash and addition of minimally biotinylated EphA2 ECD to properly orient the protein. Different concentrations of dobutamine, labetalol, and doxazosin in running buffer (PBS, 0.05% Tween-20, 1% DMSO) were flown over the chip at a rate of […] and binding analyzed in real-time. After approximately 60 seconds, running buffer was flown over the chip to dissociate the compounds from the coupled protein (downward slope of curve). Binding data were analyzed and KD values determined using Clamp software (BioLogic Software Pty Ltd).

T1 sequence (P29317 28-206 limits assumed): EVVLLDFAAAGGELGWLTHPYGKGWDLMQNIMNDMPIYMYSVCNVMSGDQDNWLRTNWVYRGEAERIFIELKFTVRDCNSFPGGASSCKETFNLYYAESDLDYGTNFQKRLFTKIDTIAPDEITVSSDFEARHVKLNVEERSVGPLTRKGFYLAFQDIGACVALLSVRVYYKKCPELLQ

On to `CC(CCc1ccc(O)cc1)NCCc1ccc(O)c(O)c1` (centres unmarked) [dobutamine], for which the Kd is 1500 µM.

Take `CC(CCc1ccccc1)NCC(O)c1ccc(O)c(C(N)=O)c1` (centres unmarked) [labetalol]: the Kd came to 440 µM.
